Data set [1] has as its system Saccharomyces cerevisiae. Description: Inhibition of Sir2p in Saccharomyces cerevisiae DMY2843 assessed as minimum inhibitory concentration.
For data set [2], the target named is T1, NAD-dependent protein deacetylase sirtuin-2 (Homo sapiens, UniProt Q8IXJ6).
T1 sequence (Q8IXJ6 whole entry): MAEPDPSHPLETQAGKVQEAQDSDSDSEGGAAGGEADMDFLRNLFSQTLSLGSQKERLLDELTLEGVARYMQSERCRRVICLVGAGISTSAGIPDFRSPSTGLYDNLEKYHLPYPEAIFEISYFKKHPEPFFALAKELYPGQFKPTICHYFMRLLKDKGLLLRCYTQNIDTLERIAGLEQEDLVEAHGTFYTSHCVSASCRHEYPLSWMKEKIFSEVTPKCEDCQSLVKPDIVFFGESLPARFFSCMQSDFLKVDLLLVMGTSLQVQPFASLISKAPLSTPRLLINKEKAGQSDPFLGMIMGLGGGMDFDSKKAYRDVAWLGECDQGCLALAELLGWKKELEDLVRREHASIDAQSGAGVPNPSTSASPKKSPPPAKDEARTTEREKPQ
Description: Inhibition of human recombinant SIRT2 using Arg-His-Lys-Lys(epsilon-acetyl)-AMC at 37 degC for 45 mins by fluorescent screening assay.

The target of data set [3] is T2, NAD-dependent protein deacetylase sirtuin-1 (Homo sapiens, UniProt Q96EB6).
T2 sequence (Q96EB6 whole entry): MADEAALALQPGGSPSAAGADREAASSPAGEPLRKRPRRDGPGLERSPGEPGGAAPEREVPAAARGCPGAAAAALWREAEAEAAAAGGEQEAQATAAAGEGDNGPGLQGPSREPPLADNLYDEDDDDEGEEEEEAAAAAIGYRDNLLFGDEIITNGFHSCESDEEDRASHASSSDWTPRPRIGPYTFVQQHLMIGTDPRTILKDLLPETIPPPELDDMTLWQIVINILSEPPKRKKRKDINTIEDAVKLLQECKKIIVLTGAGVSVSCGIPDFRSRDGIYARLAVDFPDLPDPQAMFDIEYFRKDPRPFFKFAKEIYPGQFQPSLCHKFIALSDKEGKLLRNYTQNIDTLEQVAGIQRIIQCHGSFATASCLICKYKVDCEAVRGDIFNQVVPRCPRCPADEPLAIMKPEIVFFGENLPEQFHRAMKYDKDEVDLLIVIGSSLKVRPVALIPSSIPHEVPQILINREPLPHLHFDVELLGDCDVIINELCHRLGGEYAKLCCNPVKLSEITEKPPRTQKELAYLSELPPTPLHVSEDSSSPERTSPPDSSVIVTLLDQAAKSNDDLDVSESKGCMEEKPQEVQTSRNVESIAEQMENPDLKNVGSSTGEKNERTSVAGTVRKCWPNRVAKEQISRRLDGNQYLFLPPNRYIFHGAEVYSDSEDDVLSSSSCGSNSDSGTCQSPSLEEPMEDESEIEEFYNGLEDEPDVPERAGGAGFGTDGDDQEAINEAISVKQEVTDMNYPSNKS
Description: Inhibition of human recombinant SIRT1 using Arg-His-Lys-Lys(epsilon-acetyl)-AMC at room temperature for 45 mins by fluorescent screening assay.

In data set [4] the test system is Saccharomyces cerevisiae. Description: Cytotoxicity against Saccharomyces cerevisiae DMY2843 at 10 mM. The format is organism-based. The settings on record: in vivo, 10000 µM.

≈ marks a conversion by molar mass, not a printed value.

Data on two molecules can be found in ChEMBL document CHEMBL2203192, “Creation of an HDAC-based yeast screening method for evaluation of marine-derived actinomycetes: discovery of streptosetin A” (J Nat Prod, 2012).

Regarding `CC(NC(=O)c1ccccc1/N=C/c1c(O)ccc2ccccc12)c1ccccc1` (stereo not given), the MIC with Saccharomyces cerevisiae [1] was found to be 12.5 µM (≈ 4.93 µg/mL).
For orientation: IC50 means the point on the concentration scale where inhibition reaches its midpoint. On to `CC[C@@H]1CC(=O)[C@H]2[C@@H](CC=C(C)[C@@H]2O)[C@]1(C)C(=O)C1=C(O)NCC1=O` [STREPTOSETIN A], for which the IC50 came to 4.5 mM in data set [2] and 3.7 mM in data set [3]. Moreover, the MIC with Saccharomyces cerevisiae [1] was found to be 2500 µM (≈ 869 µg/mL). In addition, the Activity entry with Saccharomyces cerevisiae [4] was “Toxic”.
